Measurements: patent publication US9622429B2, “Method for increasing plant biomass” (BioMass Booster, S.L., priority 2010, dated 2017)

Tests used:
Type in all cases: cell-based
Chlorella = assay: Microalgae growth in culture, absorbance at 680 nm; conditions: final concentration of 10^−8 M AM, Guillard F/2 medium, 5% CO2, 12 hours light/12 hours dark
Method: Two identical cultures of Chlorella in Guillard F/2 medium [Guillard, R. R. L. 1975. Culture of phytoplankton for feeding marine invertebrates. pp 26-60. In Smith W. L. and Chanley M. H (Eds.) Culture of Marine Invertebrate Animals. Plenum Press, New York, USA.; Guillard, R. R. L. and Ryther, J. H. 1962. Studies of marine planktonic diatoms. I. Cyclotella nana Hustedt and Detonula confervacea Cleve. Can. J. Microbiol. 8: 229-239] (250 ml each) were prepared in two separate glass flasks. Then, 100 μl of said Guillard F/2 medium were added to a flask and 100 μl of said Guillard F/2 medium containing the synthetic peptide human adrenomedullin (AM) (Phoenix Pharmaceuticals, Burlingame, Calif., USA) in a sufficient amount to achieve a final concentration of 10^−8 M to the other flask.
Air containing 5% CO2 was continuously bubbled in the culture. The flasks were illuminated with a photoperiod of 12 hours light/12 hours dark.
Aliquots from the medium were periodically collected in order to assess the microalgae growth. Absorbance was measured at 680 nm with a Perkin Elmer Lambda 35 UV/Visible spectrofotometer.

[1] = tested on: Carrot (Daucus carota) calli; assay: Callus growth (biomass increase) on medium containing adrenomedullin, carrot
From the text: (§1) Carrot (Daucus carota) and tobacco (Nicotiana tabacum) calli were supplied by Carolina Biological Supply Company (Burlington, N.C., USA) and kept under sterile conditions in solid callus initiation medium for carrots or for tobacco respectively (also acquired from Carolina Biological). The specific composition thereof is available in the company's catalog. A single callus was split into small fragments and these fragments were weighed under sterile conditions and seeded on fresh medium (solid callus initiation medium acquired from Carolina Biologicals) which contained different concentrations of the synthetic peptide human adrenomedullin (AM) (Phoenix Pharmaceuticals, Burlingame, Calif., USA). After 30 days of growth in the dark, the calli were weighed again and the growth rate was calculated as the quotient of the final weight divided by the initial weight. The dry weight of each sample was calculated by subjecting the calli to an oven drying process at […] for 24 hours.

[2] = tested on: tobacco (Nicotiana tabacum) calli; assay: Callus growth (biomass increase) on medium containing adrenomedullin, tobacco
From the text: as §1

[3] = different concentrations of AM, 30 days of growth in the dark
[4] = oven drying at 250° C. for 24 hours

Substance: human adrenomedullin [AM]
- microalgae growth (absorbance at 680 nm) (Chlorella): grow up faster and reach the stationary phase sooner than the non-treated microalgae
- most effective concentration of AM for stimulating cell growth ([1]; 30 days of growth in the dark): 10^−10 M
- growth of the calli (growth rate = final weight / initial weight) [1, 3]: growth increase in the calli following a dose-dependent response
- increase in the biomass when compared with the control ([1]; optimal dose of AM, 30 days): 60%
- dry weight of the tissue [1, 4]: differences were maintained
- most effective concentration of AM for stimulating cell growth ([2]; 30 days of growth in the dark): 10^−10 M
- growth of the calli (growth rate = final weight / initial weight) [2, 3]: growth increase in the calli following a dose-dependent response
- increase in the biomass when compared with the control ([2]; optimal dose of AM, 30 days): 60%
- dry weight of the tissue [2, 4]: differences were maintained
